Key:
Assay type in all cases: biochemical
PDE9 = PDE9 (Homo sapiens (Human), UniProt O76083); assay: PDE9 inhibition assay
Procedure: A PDE9 assay may for example, be performed as follows: The assay is performed in 60 μL samples containing a fixed amount of the relevant PDE enzyme (sufficient to convert 20-25% of the cyclic nucleotide substrate), a buffer (50 mM HEPES7.6; 10 mM MgCl2; 0.02% Tween20), 0.1 mg/ml BSA, 225 pCi of ^3H-labelled cyclic nucleotide substrate, tritium labeled cAMP to a final concentration of 5 nM and varying amounts of inhibitors. Reactions are initiated by addition of the cyclic nucleotide substrate, and reactions are allowed to proceed for one hr at room temperature before being terminated through mixing with 15 μL 8 mg/mL yttrium silicate SPA beads (Amersham). The beads are allowed to settle for one hr in the dark before the plates are counted in a Wallac 1450 Microbeta counter.
In the context of the present invention the assay was performed in 60 μL assay buffer (50 mM HEPES pH 7.6; 10 mM MgCl2; 0.02% Tween20) containing enough PDE9 to convert 20-25% of 10 nM ^3H-cAMP and varying amounts of inhibitors. Following a 1 hr incubation the reactions were terminated by addition of 15 μL 8 mg/mL yttrium silicate SPA beads (Amersham). The beads were allowed to settle for one hr in the dark before the plates were counted in a Wallac 1450 Microbeta counter.

PDE1B = PDE1B (Homo sapiens (Human), UniProt Q01064); assay: PDE1 inhibition assay, PDE1B; conditions: for IC50: 15 nM tritium labelled cAMP
Sequence of PDE1B (Q01064 whole entry): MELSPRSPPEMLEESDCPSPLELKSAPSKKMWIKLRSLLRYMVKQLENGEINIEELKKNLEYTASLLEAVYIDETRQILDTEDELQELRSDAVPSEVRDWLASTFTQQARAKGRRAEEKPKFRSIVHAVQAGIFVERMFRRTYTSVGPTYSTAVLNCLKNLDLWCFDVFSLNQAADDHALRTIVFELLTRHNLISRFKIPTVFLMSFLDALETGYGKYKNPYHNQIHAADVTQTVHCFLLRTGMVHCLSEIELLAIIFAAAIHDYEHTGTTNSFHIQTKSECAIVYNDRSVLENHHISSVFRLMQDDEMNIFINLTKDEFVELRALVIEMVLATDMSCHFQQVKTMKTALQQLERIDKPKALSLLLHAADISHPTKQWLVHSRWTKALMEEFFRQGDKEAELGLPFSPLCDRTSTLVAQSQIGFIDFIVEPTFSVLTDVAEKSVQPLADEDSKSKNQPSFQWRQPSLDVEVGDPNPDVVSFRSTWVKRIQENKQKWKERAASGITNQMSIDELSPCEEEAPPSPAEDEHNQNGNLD
Procedure: (§1) Reactions were initiated by addition of the cyclic nucleotide substrate, and reactions were allowed to proceed for 1 h at room temperature before being terminated through mixing with 20 μL (0.2 mg) yttrium silicate SPA beads (PerkinElmer). The beads were allowed to settle for 1 h in the dark before the plates were counted in a Wallac 1450 Microbeta counter.

PDE1A = PDE1A (Homo sapiens (Human), UniProt P54750); assay: PDE1 inhibition assay, PDE1A; conditions: for IC50: 15 nM tritium labelled cAMP
Sequence of PDE1A (P54750 whole entry): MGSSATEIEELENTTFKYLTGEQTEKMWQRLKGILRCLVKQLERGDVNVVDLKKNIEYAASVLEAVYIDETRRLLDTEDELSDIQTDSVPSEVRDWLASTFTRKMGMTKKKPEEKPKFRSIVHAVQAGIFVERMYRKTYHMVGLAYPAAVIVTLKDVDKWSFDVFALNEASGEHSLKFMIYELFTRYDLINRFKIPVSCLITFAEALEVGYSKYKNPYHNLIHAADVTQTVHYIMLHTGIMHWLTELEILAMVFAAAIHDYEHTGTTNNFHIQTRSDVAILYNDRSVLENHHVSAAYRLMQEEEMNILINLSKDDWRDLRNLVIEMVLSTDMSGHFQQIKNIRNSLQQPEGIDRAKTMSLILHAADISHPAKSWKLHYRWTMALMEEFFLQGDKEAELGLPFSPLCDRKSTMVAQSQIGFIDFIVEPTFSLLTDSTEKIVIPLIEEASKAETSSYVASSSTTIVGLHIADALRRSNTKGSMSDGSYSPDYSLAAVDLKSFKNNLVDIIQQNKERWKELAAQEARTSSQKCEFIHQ
Procedure: Reactions were initiated by addition of the cyclic nucleotide substrate, and reactions were allowed to proceed for 1 h at room temperature before being terminated through mixing with 20 μL (0.2 mg) yttrium silicate SPA beads (PerkinElmer).

PDE1C = PDE1C (Homo sapiens (Human), UniProt Q14123); assay: PDE1 inhibition assay, PDE1C; conditions: for IC50: 15 nM tritium labelled cAMP
Sequence of PDE1C (Q14123 whole entry): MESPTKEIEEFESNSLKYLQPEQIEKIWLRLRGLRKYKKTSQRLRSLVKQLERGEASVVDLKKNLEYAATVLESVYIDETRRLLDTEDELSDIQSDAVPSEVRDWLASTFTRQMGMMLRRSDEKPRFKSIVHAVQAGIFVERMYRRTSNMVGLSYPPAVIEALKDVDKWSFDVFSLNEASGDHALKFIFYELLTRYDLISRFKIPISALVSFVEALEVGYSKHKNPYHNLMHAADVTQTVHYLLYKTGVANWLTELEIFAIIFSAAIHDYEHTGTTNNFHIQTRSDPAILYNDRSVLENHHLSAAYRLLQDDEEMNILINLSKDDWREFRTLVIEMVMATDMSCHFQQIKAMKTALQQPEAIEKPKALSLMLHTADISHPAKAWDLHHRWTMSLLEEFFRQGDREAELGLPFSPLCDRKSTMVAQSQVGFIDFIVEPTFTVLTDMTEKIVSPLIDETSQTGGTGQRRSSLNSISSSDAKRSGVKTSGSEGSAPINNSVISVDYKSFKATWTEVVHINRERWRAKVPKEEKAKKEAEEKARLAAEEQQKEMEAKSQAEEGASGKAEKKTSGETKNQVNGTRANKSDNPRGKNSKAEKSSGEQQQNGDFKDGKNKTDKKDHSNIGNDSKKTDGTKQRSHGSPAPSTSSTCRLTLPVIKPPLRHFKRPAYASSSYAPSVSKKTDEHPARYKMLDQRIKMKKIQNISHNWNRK
Procedure: as §1

Sequence of PDE9 (O76083 whole entry): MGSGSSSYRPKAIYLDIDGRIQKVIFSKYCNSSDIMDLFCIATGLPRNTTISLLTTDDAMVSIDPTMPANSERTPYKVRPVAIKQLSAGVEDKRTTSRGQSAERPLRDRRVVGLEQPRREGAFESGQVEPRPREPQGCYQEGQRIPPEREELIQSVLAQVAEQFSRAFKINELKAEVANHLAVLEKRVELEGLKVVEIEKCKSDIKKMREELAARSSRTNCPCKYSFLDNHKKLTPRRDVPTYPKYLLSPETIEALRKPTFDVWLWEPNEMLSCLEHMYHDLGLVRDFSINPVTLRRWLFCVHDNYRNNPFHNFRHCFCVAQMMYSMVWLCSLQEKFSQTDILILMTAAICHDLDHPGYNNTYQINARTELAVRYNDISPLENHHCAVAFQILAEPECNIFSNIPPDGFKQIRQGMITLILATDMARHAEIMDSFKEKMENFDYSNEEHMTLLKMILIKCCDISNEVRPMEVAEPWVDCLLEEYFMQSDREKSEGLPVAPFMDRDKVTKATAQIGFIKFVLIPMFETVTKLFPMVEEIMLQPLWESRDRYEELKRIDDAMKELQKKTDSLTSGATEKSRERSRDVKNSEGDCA

SMILES | % inhibition of PDE9 at 10 microM (PDE9) [%] | IC50 (PDE1B) [nM] | IC50 (PDE1A) [nM] | IC50 (PDE1C) [nM] | inhibition at 10 µM (PDE9) [%] | inhibition at 10 µM (PDE1A; read-out: PDE1A, % inhibition (at 10 μM)) [%] | PDE1C, % inhibition (at 1 μM) (PDE1C; at 1 μM) [%] | inhibition at 2 µM (PDE1B; read-out: PDE1B, % inhibition (at 2 μM)) [%] | inhibition at 2 µM (PDE1A; read-out: PDE1A, % inhibition (at 2 μM)) [%]
Cc1cn2c(N3CCC4OCCC43)ncc2c(=O)n1Cc1cccc(F)c1 (single isomer, unassigned; isomer 1) [99, isomer 1] | 9 | 134 | 241 | 27 | – | – | – | – | –
Cc1cn2c(C3CCOCC3)ncc2c(=O)n1C[C@H]1CC[C@@H](C)CC1 [66, cis] | −3 | 6 | 7 | 4 | – | – | – | – | –
O=c1c2cnc(C3CC3)n2ccn1CC1CCCCC1 [Example 8, 7-(Cyclohexylmethyl)-3-cyclopropylimidazo[1,5-a]pyrazin-8(7H)-one] | – | 67 | 252 | 100 | 9 | – | – | – | –
COc1ccc(Cn2c(C)cn3c(C(C)c4nc(C)cs4)ncc3c2=O)cc1 (stereo not shown) [Example 90, 7-(4-methoxybenzyl)-6-methyl-3-(1-(4-methylthiazol-2-yl)ethyl)imidazo[1,5-a]pyrazin-8(7H)-one] | – | 15 | 34 | 23 | 10 | – | – | – | –
Cc1cn2c(C3CCOCC3)ncc2c(=O)n1Cc1cscn1 [Example 80, 6-methyl-3-(tetrahydro-2H-pyran-4-yl)-7-(thiazol-4-ylmethyl)imidazo[1,5-a]pyrazin-8(7H)-one] | – | 1310 | – | 496 | 18 | 72 | – | – | –
Cc1cn2c([C@H]3CCO[C@H]3C)ncc2c(=O)n1Cc1cccc(F)c1 (single isomer, unassigned; isomer 4) [36, isomer 4] | 11 | 520 | 51 | – | – | – | 40 | – | –
Cc1cn2c(C3CCOCC3)ncc2c(=O)n1CC1CCCCCC1 [Example 65, 7-(cycloheptylmethyl)-6-methyl-3-(tetrahydro-2H-pyran-4-yl)imidazo[1,5-a]pyrazin-8(7H)-one] | – | 6 | 10 | 5 | 11 | – | – | – | –
CCCc1ncc2c(=O)n(Cc3ccc(OC)cc3)c(C)cn12 [Example 56, 7-(4-methoxybenzyl)-6-methyl-3-propylimidazo[1,5-a]pyrazin-8(7H)-one] | – | 21 | 65 | 43 | 7 | – | – | – | –
Cc1cn2c(C3CCOCC3)ncc2c(=O)n1Cc1ccccc1Cl [Example 19, 7-(2-Chlorobenzyl)-6-methyl-3-(tetrahydro-2H-pyran-4-yl)imidazo[1,5-a]pyrazin-8(7H)-one] | – | 68 | 46 | 10 | 18 | – | – | – | –
Cc1cn2c([C@H]3CCCOC3)ncc2c(=O)n1Cc1cccc(F)c1 (single isomer, unassigned; isomer 2) [100, isomer 2] | −21 | 93 | 333 | 33 | – | – | – | – | –
O=c1c2cnc(C3CCOCC3)n2cc(Br)n1Cc1cccc(F)c1 [Example 15, 6-Bromo-7-(3-fluorobenzyl)-3-(tetrahydro-2H-pyran-4-yl)imidazo[1,5-a]pyrazin-8(7H)-one] | – | 115 | 58 | 15 | 15 | – | – | – | –
CCn1c(C)cn2c(C3CCOCC3)ncc2c1=O [Example 59, 7-ethyl-6-methyl-3-(tetrahydro-2H-pyran-4-yl)imidazo[1,5-a]pyrazin-8(7H)-one] | – | 496 | 2330 | 1740 | -13 | – | – | – | –
Cc1cn2c(C3CCOCC3)ncc2c(=O)n1Cc1ccsc1 [Example 79, 6-methyl-3-(tetrahydro-2H-pyran-4-yl)-7-(thiophen-3-ylmethyl)imidazo[1,5-a]pyrazin-8(7H)-one] | – | 112 | 228 | 15 | 14 | – | – | – | –
COc1cccc(Cn2c(C)cn3c(C4CCOCC4)ncc3c2=O)c1 [Example 20, 7-(3-Methoxybenzyl)-6-methyl-3-(tetrahydro-2H-pyran-4-yl)imidazo[1,5-a]pyrazin-8(7H)-one] | – | 175 | 416 | 62 | -38 | – | – | – | –
O=c1c2cnc(C3CCOCC3)n2ccn1Cc1cccc(F)c1 [Example 9, 7-(3-Fluorobenzyl)-3-(tetrahydro-2H-pyran-4-yl)imidazo[1,5-a]pyrazin-8(7H)-one] | – | – | – | 170 | 2 | – | – | 90 | 68
Cc1cn2c(C3CCOCC3)ncc2c(=O)n1CCC(C)C [Example 62, 7-isopentyl-6-methyl-3-(tetrahydro-2H-pyran-4-yl)imidazo[1,5-a]pyrazin-8(7H)-one] | – | 558 | 1080 | 93 | 7 | – | – | – | –
COc1ccc(Cn2c(C)cn3c(C4CCOCC4)ncc3c2=O)cc1 [Example 23, 7-(4-Methoxybenzyl)-6-methyl-3-(tetrahydro-2H-pyran-4-yl)imidazo[1,5-a]pyrazin-8(7H)-one] | – | 12 | 14 | 19 | 16 | – | – | – | –
CO[C@H]1CC[C@@H](Cn2c(C)cn3c(C4CCOCC4)ncc3c2=O)CC1 [Example 67, 7-(((cis)-4-methoxycyclohexyl)methyl)-6-methyl-3-(tetrahydro-2H-pyran-4-yl)imidazo[1,5-a]pyrazin-8(7H)-one] | – | 87 | 234 | 307 | 10 | – | – | – | –

Continued by falling IC50 (PDE1B), values first:

% inhibition of PDE9 at 10 microM (PDE9) [%] | IC50 (PDE1B) [nM] | IC50 (PDE1A) [nM] | IC50 (PDE1C) [nM] | inhibition at 10 µM (PDE9) [%] | inhibition at 10 µM (PDE1A; read-out: PDE1A, % inhibition (at 10 μM)) [%] | PDE1C, % inhibition (at 1 μM) (PDE1C; at 1 μM) [%] | inhibition at 2 µM (PDE1B; read-out: PDE1B, % inhibition (at 2 μM)) [%] | inhibition at 2 µM (PDE1A; read-out: PDE1A, % inhibition (at 2 μM)) [%] | SMILES
– | 699 | 603 | 103 | 5 | – | – | – | – | Cc1cn2c(C3(C#N)CCOCC3)ncc2c(=O)n1Cc1cccc(F)c1 [Example 27, 4-(7-(3-fluorobenzyl)-6-methyl-8-oxo-7,8-dihydroimidazo[1,5-a]pyrazin-3-yl)tetrahydro-2H-pyran-4-carbonitrile]
– | 528 | 624 | 103 | 11 | – | – | – | – | Cc1cn2c(C3CCOCC3)ncc2c(=O)n1Cc1ccccc1C#N [Example 64, 2-((6-methyl-8-oxo-3-(tetrahydro-2H-pyran-4-yl)imidazo[1,5-a]pyrazin-7(8H)-yl)methyl)benzonitrile]
11 | 223 | 306 | 43 | – | – | – | – | – | Cc1cn2c([C@@H]3CCCOC3)ncc2c(=O)n1Cc1cccc(F)c1 (single isomer, unassigned; isomer 1) [100, isomer 1]
5 | 138 | 347 | 31 | – | – | – | – | – | Cc1cn2c([C@H]3CCOC3)ncc2c(=O)n1Cc1cccc(F)c1 (single isomer, unassigned; isomer 2) [31, isomer 2]
−1 | 106 | 337 | 27 | – | – | – | – | – | Cc1cn2c([C@@H]3CCOC3)ncc2c(=O)n1Cc1cccc(F)c1 (single isomer, unassigned; isomer 1) [31, isomer 1]
– | 57 | 63 | 9 | -42 | – | – | – | – | Cc1cccc(Cn2c(C)cn3c(C4CCOCC4)ncc3c2=O)c1 [Example 25, 6-Methyl-7-(3-methylbenzyl)-3-(tetrahydro-2H-pyran-4-yl)imidazo[1,5-a]pyrazin-8(7H)-one]
– | 53 | 62 | 12 | 23 | – | – | – | – | CCc1cn2c(C3CCOCC3)ncc2c(=O)n1Cc1cccc(F)c1 [Example 54, 6-ethyl-7-(3-fluorobenzyl)-3-(tetrahydro-2H-pyran-4-yl)imidazo[1,5-a]pyrazin-8(7H)-one]
– | 43 | 38 | 17 | -1 | – | – | – | – | Cc1cn2c(C3CCOCC3)ncc2c(=O)n1Cc1ccc(F)cc1 [Example 24, 7-(4-Fluorobenzyl)-6-methyl-3-(tetrahydro-2H-pyran-4-yl)imidazo[1,5-a]pyrazin-8(7H)-one]
– | 35 | 401 | 84 | -41 | – | – | – | – | Cc1cn2c(C3CCOCC3)ncc2c(=O)n1Cc1ccc(O)cc1 [Example 53, 7-(4-hydroxybenzyl)-6-methyl-3-(tetrahydro-2H-pyran-4-yl)imidazo[1,5-a]pyrazin-8(7H)-one]
– | 11 | 71 | 79 | 57 | – | – | – | – | COc1ccc(Cn2c(CC3CCCC3)cn3c(C4CCOCC4)ncc3c2=O)cc1 [Example 92, 6-(cyclopentylmethyl)-7-(4-methoxybenzyl)-3-(tetrahydro-2H-pyran-4-yl)imidazo[1,5-a]pyrazin-8(7H)-one]
